The source of these data is patent US7271187B2, “Compositions and methods for promoting tissue regeneration” (priority 2000, dated 2007).

Test [1] relates to Fischer F344 female rats, spinal cord contusion injury. In words: Spinal cord contusion injury, injection of bone marrow cells from treated donors into the cavity. The class given is in vivo, rat. The conditions noted are these: recipients of bone marrow cells from donors given 100 mg/kg orally. From the text:
In some embodiments of the invention, cells, preferably bone marrow cells, can be transferred from a first animal treated according to methods of the invention to a site of chronic spinal cord injury in the first animal or in a second animal.
Fischer F344 female rats (Taconic, Germantown N.Y.) weighing 175-200 g were subjected to 25 mm weight drop contusion injury as previously described (Gruner J A, J. Neurotrauma, 1992 Summer; 9(2):123-8) with slight modifications. Briefly, under isoflurane anethesia, a laminectomy exposing the T8-9 spinal cord segment was performed and a rod weighing 10 g was dropped on the exposed cord from 25 mm height. The rod diameter at its end (where cord-rod interaction takes place) is 2.8 mm. A total of 12 rats were injured. Four animals were used as donor animals, eight as recipients. Two donor animals were administered N-[4-[(4-fluorophenyl)sulfonyl]phenyl]acetamide at a dose of 100 mg/kg orally, and two other animals were treated with vehicle (cyclodextrin, 45% in distilled sterile water). […]
Doseage levels of with N-[4-[(4-fluorophenyl)sulfonyl]phenyl]acetamide was 100 mg/kg at 20 mg/ml. No difference in cavity size was detected comparing saline treated animals and animals treated with bone marrow cells from vehicle treated donors. […]

Test [2] has as its system cortical neurons on aged astrocytes. In words: Growth of cortical neurons on aged astrocytes, count of tubulin-positive neurons. The class given is cell-based, Sprague Dawley rat. Particulars: 1 week after treatment; for Number of Neurons, Well 2 / Number of Neurons, Well 4: control 74; for Number of Neurons, Well 3: control 89; for Number of Neurons, mean: control 82.50. The method, then: Astrocytes: postnatal day 2 (P2) Sprague Dawley rat cortices were aseptically dissected and trypsinized for 20 min at 37° C. in 0.25% trypsin-EDTA (GIBCO) and DNAse (0.2 mg/ml, Worthington). Enzyme action was stopped by the addition of soybean trypsin inhibitor (SIGMA)) and DNAse. Tissue was dissociated into single cell suspension by trituration with a 5 ml pipette, filtered though a 40 μm nylon filter and centrifuged at 500×g for 3 minutes. The pellet was taken up in medium (DMEM/10% fetal bovine serum) and cells were plated into poly-D-lysine (10 μg/ml, SIGMA) T75 flasks (one flask/cortex). After 23 days, astrocytes were trypsinized and replated at a density of 500,000 cells per well into poly-D-lysine-coated 24 well plates. Cultures were grown for an additional 20 days in order to let astrocytes mature. This maturation is known to make the astrocytes less permissive for neurite outgrowth (see G. M. Smith, et al., Developmental Biology, 138, 377-390 (1990), and G. M. Smith and J. Silver, Progress in Brain Research, Vol. 78, Chapt. 46, D. M. Cash and J. R. Sladek, ed., Elsevier, 1988.
Cortical neurons: mixed cortical cells were dissociated from embryonic day 18 Sprague Dawley rat embryos as described for astrocytes. In order to obtain more pure neuonal cultures, cells were subjected to a differential adhesion by pre-plating them on a non-coated bacterial dish (100 mm diameter) for 1 hour. Non-neuronal cells stick to this plate while neurons stay in the supernatant. Neurons were added to the aged astrocytes at a density of 10,000 cells/well in DEME/10% fetal bovine serum. One day later, the cultures were treated with 1 μg/ml and 10 μg/ml of N-4[4-[(4-fluorophenyl)sulfonyl]phenyl]acetamide. 1 week after treatment, cultures were fixed and immunostained with monoclonal anti-tubulin antibody (SIGMA, 1:800 diluted), followed by rhodamine-conjugated goat-anti-mouse secondary (1:100 dilution). Tubulin labels axons and dentrites.
Analysis: Tubulin-positive cell bodies with a process at least two cell diameters long were counted in 5 visual fields under 10× magnification with a Nikon Eclipse 2000 inverted microscope. Results were expressed as means of quadruplicate wells+/−SEM and are shown in Table I. Any patent application to which this application claims priority is incorporated by reference herein in its entirety.

“Also recorded” adds a separate entry of the source.

`CC(=O)Nc1ccc(S(=O)(=O)c2ccc(F)cc2)cc1` [N-[4-[(4-fluorophenyl)sulfonyl]phenyl]acetamide]: the “cavity size at the injury site” value in test [1] (four weeks after cell injection, vs saline treated animals) is recorded as “decrease in cavity size at the injury site (approximately half the size)”. Besides, the “Nestin immunoreactive cells at the edge of the injury cavity” value in test [1] (vs saline or vehicle treated donors, 100 mg/kg) is recorded as “Nestin immunoreactive cells are observed at the edge of the injury cavity; also recorded: significant increase in cells immunoreactive to nestin”. In addition, in test [2] (1 μg/ml), the “Number of Neurons, Well 2” value is 103; the “Number of Neurons, Well 4” value is given as 176; the “Number of Neurons, Well 3” value was 171. For the same compound, in test [2] (1 μg/ml, control 93), the “Number of Neurons, Well 1” value is 132. Also, in test [2] (1 μg/ml, mean of quadruplicate wells), the “Number of Neurons, mean” value turned out to be 145.50. Further, in test [2] (10 μg/ml), the “Number of Neurons, Well 2” value turned out to be 129; the “Number of Neurons, Well 4” value worked out at 133; the “Number of Neurons, Well 3” value was found to be 173. Also, the “Number of Neurons, mean” value in test [2] (10 μg/ml, mean of wells) is listed as 145.00.
